Each structure is given as a SMILES string.

For this assay, the target named is T1, Itk (Homo sapiens, UniProt Q08881).
T1 sequence (Q08881 1-620): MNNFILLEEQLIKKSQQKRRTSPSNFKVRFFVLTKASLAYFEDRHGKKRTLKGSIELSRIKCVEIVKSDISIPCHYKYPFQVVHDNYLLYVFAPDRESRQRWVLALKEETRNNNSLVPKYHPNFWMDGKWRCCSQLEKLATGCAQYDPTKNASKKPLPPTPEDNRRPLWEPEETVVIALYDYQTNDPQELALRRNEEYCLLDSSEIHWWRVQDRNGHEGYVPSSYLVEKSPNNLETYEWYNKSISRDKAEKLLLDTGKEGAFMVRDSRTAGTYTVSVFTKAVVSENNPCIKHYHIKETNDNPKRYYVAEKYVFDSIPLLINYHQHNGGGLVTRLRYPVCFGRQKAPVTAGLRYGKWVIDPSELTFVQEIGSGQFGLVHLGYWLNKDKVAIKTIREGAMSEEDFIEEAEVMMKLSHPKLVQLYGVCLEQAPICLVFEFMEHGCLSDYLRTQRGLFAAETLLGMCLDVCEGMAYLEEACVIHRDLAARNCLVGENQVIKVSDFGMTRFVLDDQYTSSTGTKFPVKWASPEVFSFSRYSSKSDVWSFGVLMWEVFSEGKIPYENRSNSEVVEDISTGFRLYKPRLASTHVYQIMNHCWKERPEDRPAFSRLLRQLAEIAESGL
Briefly: Itk inhibition assay: spectrophotometric coupled enzyme (Method C). Conditions: 100 μM ATP, read-out: Ki in the standard coupled enzyme assay (Method C). Type of assay: biochemical. As to the method: The compounds of the present invention were evaluated as inhibitors of human Itk kinase using either a radioactivity-based, spectrophotometric or alphascreen assay.
Compounds were screened for their ability to inhibit Itk using a standard coupled enzyme assay (Fox et al., Protein Sci., (1998) 7, 2249).
Assays were carried out in a mixture of 20 mM MOPS (pH 7.0), 10 mM MgCl2, 0.1% BSA, 1 mM DTT, 2.5 mM phosphoenolpyruvate, 300 μM NADH, 30 μg/ml pyruvate kinase and 10 μg/ml lactate dehydrogenase. Final substrate concentrations in the assay were 100 μM ATP (Sigma Chemicals) and 3 μM peptide (Biotinylated SAM68 Δ332-443). Assays were carried out at 25° C. and in the presence of 10 nM Itk.
An assay stock buffer solution was prepared containing all of the reagents listed above, with the exception of ATP and the test compound of interest. 60 μl of the stock solution was placed in a 96 well plate followed by addition of 2 μl of DMSO stock containing serial dilutions of the test compound (typically starting from a final concentration of 15 μM). The plate was preincubated for 10 minutes at 25° C. and the reaction initiated by addition of 5 μl of ATP. Initial reaction rates were determined with a Molecular Devices SpectraMax Plus plate reader over a 10 minute time course. IC50 and Ki data were calculated from non-linear regression analysis using the Prism software package (GraphPad Prism version 3.0cx for Macintosh, GraphPad Software, San Diego Calif., USA).
Regarding `CN(CCO)C(=O)c1cc2c(ccc3cnc(Nc4cccc(S(C)(=O)=O)c4)nc32)s1` [Compound V-152], the Ki (in general, a dissociation constant, usually derived from enzyme kinetics or from competition with a known ligand) was below 1000 nM. For the molecule `CN1CCN(C(=O)c2ccc(Nc3ncc4ccc5sc(C(=O)N6CCNCC6)cc5c4n3)cc2)CC1` [Compound V-122], the inhibition constant Ki is below 1000 nM. On to `COc1ccccc1-c1cccc(Nc2ncc3ccc4sc(C(=O)N5CCNCC5)cc4c3n2)c1` [Compound V-91], for which the Ki is below 1000 nM. To `O=C(c1cc2c(ccc3cnc(Nc4cccc(-c5ccccc5)c4)nc32)s1)N1CCOCC1` [Compound V-58] belongs below 1000 nM.

Regarding `COCCCNCCC(=O)Nc1cccc(Nc2ncc3ccc4sc(C(=O)N5CCOCC5)cc4c3n2)c1` [Compound V-77], the inhibitory constant (Ki) was below 1000 nM. For the molecule `O=C(c1cc2c(ccc3cnc(Nc4cccc(Br)c4)nc32)s1)N1CCNCC1` [Compound V-89], the Ki was below 1000 nM. To `O=C(c1cc2c(ccc3cnc(NCCc4ccccc4)nc32)s1)N1CCNCC1` [Compound V-125] belongs below 1000 nM; to `CCN(CCN(C)C)C(=O)c1cc2c(ccc3cnc(Nc4cccc(S(C)(=O)=O)c4)nc32)s1` [Compound V-157], below 1000 nM. For the molecule `CC(=O)N1CCN(C(=O)c2cc3c(ccc4cnc(Nc5cccc(S(C)(=O)=O)c5)nc43)s2)CC1` [Compound V-147], the Ki was below 1000 nM. On to `CS(=O)(=O)c1cccc(Nc2ncc3ccc4sc(C(=O)NC5(CO)CCCC5)cc4c3n2)c1` [Compound V-132], for which the Ki was below 1000 nM. `CS(=O)(=O)c1cccc(Nc2ncc3ccc4sc(C(=O)NCC5CCNCC5)cc4c3n2)c1` [Compound V-149]: the Ki was below 1000 nM. As for `O=C(c1cc2c(ccc3cnc(Nc4cccc(N5CCOCC5)c4)nc32)s1)N1CCNCC1` [Compound V-112], the Ki is below 1000 nM. As for `CC(C)Oc1cccc(Nc2ncc3ccc4sc(C(=O)N5CCNCC5)cc4c3n2)c1` [Compound V-102], the Ki was below 1000 nM. For `O=C(c1cc2c(ccc3cnc(Nc4cccnc4)nc32)s1)N1CCNCC1` [Compound V-117], the Ki was below 1000 nM. Regarding `O=C(c1ccc(Nc2ncc3ccc4sc(C(=O)N5CCNCC5)cc4c3n2)cc1)N1CCOCC1` [Compound V-120], the Ki is below 1000 nM. `CS(=O)(=O)c1cccc(Nc2ncc3ccc4sc(C(=O)NCc5ccccc5)cc4c3n2)c1` [Compound V-129]: the Ki is below 1000 nM. Turning to `O=C(CCN1CCOCC1)Nc1cccc(Nc2ncc3ccc4sc(C(=O)N5CCOCC5)cc4c3n2)c1` [Compound V-69], the Ki was below 1000 nM.

Take `CN1CCN(CCC(=O)Nc2cccc(Nc3ncc4ccc5sc(C(=O)N6CCOCC6)cc5c4n3)c2)CC1` [Compound V-70]: the Ki is below 1000 nM.

As to `CS(=O)(=O)c1cccc(Nc2ncc3ccc4sc(C(=O)N5CCC(N)C5)cc4c3n2)c1` (stereo not drawn) [Compound V-101], the Ki was below 1000 nM. On to `CN1CCN(C(=O)c2cc3c(ccc4cnc(Nc5cccc(Cc6ccccc6)c5)nc43)s2)CC1` [Compound V-86], for which the Ki is below 1000 nM. In the case of `COCCNC(=O)c1cc2c(ccc3cnc(Nc4cccc(S(C)(=O)=O)c4)nc32)s1` [Compound V-134], the Ki was below 1000 nM.

`CC(C)c1cccc(Nc2ncc3ccc4sc(C(=O)N5CCNCC5)cc4c3n2)c1` [Compound V-81]: the inhibition constant (Ki) was below 1000 nM.

In the case of `NC1CCN(C(=O)c2cc3c(ccc4cnc(Nc5cccc(-c6ccccc6)c5)nc43)s2)C1` (stereo not drawn) [Compound V-73], the Ki is below 1000 nM.

Regarding `CC(C)(C)c1cccc(Nc2ncc3ccc4sc(C(=O)N5CCC(N)C5)cc4c3n2)c1` (stereo not drawn) [Compound V-72], the Ki is below 1000 nM. On to `C[C@@H]1CN(C(=O)c2cc3c(ccc4cnc(Nc5cccc(S(C)(=O)=O)c5)nc43)s2)C[C@H](C)O1` [Compound V-143], for which the Ki is below 1000 nM. For the molecule `O=C(c1cc2c(ccc3cnc(NCCc4ccccc4Cl)nc32)s1)N1CCNCC1` [Compound V-162], the Ki is below 1000 nM. Take `COCCNCCC(=O)Nc1cccc(Nc2ncc3ccc4sc(C(=O)N5CCOCC5)cc4c3n2)c1` [Compound V-76]: the Ki is below 1000 nM. Take `Cc1cccc(C)c1-c1cccc(Nc2ncc3ccc4sc(C(=O)N5CCNCC5)cc4c3n2)c1` [Compound V-92]: the Ki is below 1000 nM.

Take `O=C(c1cc2c(ccc3cnc(Nc4cccc(-c5ccccc5)c4)nc32)s1)N1CCNCC1` [Compound V-80]: the Ki was below 1000 nM. `O=C(c1cc2c(ccc3cnc(Nc4cccc(Cc5ccccc5)c4)nc32)s1)N1CCNCC1` [Compound V-87]: the Ki is below 1000 nM. Regarding `O=C(c1cc2c(ccc3cnc(NCCCc4ccccc4)nc32)s1)N1CCNCC1` [Compound V-170], the Ki was below 1000 nM. Turning to `CS(=O)(=O)c1cccc(Nc2ncc3ccc4sc(C(=O)NCCO)cc4c3n2)c1` [Compound V-133], the inhibition constant Ki is below 1000 nM. In the case of `CC(=O)N1CCCN(C(=O)c2cc3c(ccc4cnc(Nc5cccc(C(C)(C)C)c5)nc43)s2)CC1` [Compound V-106], the Ki is below 1000 nM. Consider `O=C(c1cc2c(ccc3cnc(Nc4cccc(F)c4)nc32)s1)N1CCOCC1` [Compound V-61], for which the Ki is below 1000 nM. For the molecule `O=C(c1cc2c(ccc3cnc(NCCc4c[nH]cn4)nc32)s1)N1CCNCC1` [Compound V-178], the Ki is below 1000 nM. To `Nc1ccc(CCNc2ncc3ccc4sc(C(=O)N5CCNCC5)cc4c3n2)cc1` [Compound V-165] belongs below 1000 nM. Turning to `CS(=O)(=O)c1cccc(Nc2ncc3ccc4sc(C(=O)NCC5CCNC5)cc4c3n2)c1` (stereo not drawn) [Compound V-146], the Ki was below 1000 nM. To `O=C(c1cc2c(ccc3cnc(Nc4cccc(N5CCNCC5)c4)nc32)s1)N1CCNCC1` [Compound V-113] belongs below 1000 nM; to `O=C(c1cc2c(ccc3cnc(NCCc4ccc(Cl)cc4)nc32)s1)N1CCNCC1` [Compound V-159], below 1000 nM; to `CN1CCN(C(=O)c2cc3c(ccc4cnc(Nc5cccc(C(C)(C)C)c5)nc43)s2)CC1` [Compound V-56], below 1000 nM. With `CS(=O)(=O)c1cccc(Nc2ncc3ccc4sc(C(=O)NCCN5CCNC5=O)cc4c3n2)c1` [Compound V-145], the Ki was below 1000 nM. To `CC(=O)N1CCCN(C(=O)c2cc3c(ccc4cnc(Nc5cccc(S(C)(=O)=O)c5)nc43)s2)CC1` [Compound V-138] belongs below 1000 nM; to `CN(C)C(=O)c1cc2c(ccc3cnc(Nc4cccc(S(C)(=O)=O)c4)nc32)s1` [Compound V-141], below 1000 nM; to `CS(=O)(=O)c1cccc(Nc2ncc3ccc4sc(C(=O)N5CCNC(=O)C5)cc4c3n2)c1` [Compound V-131], below 1000 nM. Take `O=C(c1cc2c(ccc3cnc(NCCc4ccc(F)cc4)nc32)s1)N1CCNCC1` [Compound V-180]: the Ki was below 1000 nM. Regarding `O=C(CCN1CCCCC1)Nc1cccc(Nc2ncc3ccc4sc(C(=O)N5CCOCC5)cc4c3n2)c1` [Compound V-67], the Ki is below 1000 nM. On to `CC(C)(C)c1cccc(Nc2ncc3ccc4sc(C(=O)N5CCNCC5)cc4c3n2)c1` [Compound V-79], for which the Ki is below 1000 nM.

In the case of `CN1CCN(c2cccc(Nc3ncc4ccc5sc(C(=O)N6CCNCC6)cc5c4n3)c2)CC1` [Compound V-114], the Ki is below 1000 nM. For the molecule `O=C(c1cc2c(ccc3cnc(Nc4ccncc4)nc32)s1)N1CCNCC1` [Compound V-116], the Ki was below 1000 nM.

`CC1CC(C)CN(CCC(=O)Nc2cccc(Nc3ncc4ccc5sc(C(=O)N6CCOCC6)cc5c4n3)c2)C1` (stereo not drawn) [Compound V-78]: the Ki was below 1000 nM.

`O=C(c1cc2c(ccc3cnc(Nc4cccc(-c5cccnc5)c4)nc32)s1)N1CCNCC1` [Compound V-94]: the Ki was below 1000 nM. For the molecule `CN(C)CCC(=O)Nc1cccc(Nc2ncc3ccc4sc(C(=O)N5CCOCC5)cc4c3n2)c1` [Compound V-71], the Ki was below 1000 nM. With `CN(C)C(=O)c1ccc(Nc2ncc3ccc4sc(C(=O)N5CCNCC5)cc4c3n2)cc1` [Compound V-121], the Ki was below 1000 nM. `NC1CCN(C(=O)c2cc3c(ccc4cnc(Nc5cccc(F)c5)nc43)s2)C1` (stereo not drawn) [Compound V-74]: the Ki was below 1000 nM. Regarding `CC(C)(C)c1cccc(Nc2ncc3ccc4sc(C(=O)NCC5CCNCC5)cc4c3n2)c1` [Compound V-107], the Ki was below 1000 nM. For the molecule `NS(=O)(=O)c1cccc(Nc2ncc3ccc4nc(C(=O)N5CCNCC5)sc4c3n2)c1` [Compound V-177], the Ki is below 1000 nM.

Consider `Cc1ccccc1-c1cccc(Nc2ncc3ccc4sc(C(=O)N5CCNCC5)cc4c3n2)c1` [Compound V-90], for which the Ki was below 1000 nM.
